These results are taken from patent publication US12419305B2, “Antimicrobial compositions” (Firmenich SA, priority 2018, dated 2025).

One assay relates to C. xerosis ATCC 373. Briefly: BCT test (bacterial contact time), 120 s, log reduction / effect fraction; CI by Compusyn. It is filed as cell-based. To be noted: Corynebacterium xerosis, ATCC373, 2 min, contact 120 s, 25% EtOH; for log reduction at 0.5 % strength: dose 0.5% w/v; for log reduction at 0.75 % strength: dose 0.75% w/v; for log reduction at 1 % strength: dose 1.0% w/v. As to the method:
C. xerosis: Suspensions of the C. xerosis ATCC 373 strain were prepared as follows: Stock cultures (stored at −80° C.) were thawed and subcultured onto Tryptic Soy Agar media with Tween 80 (TSA-TW80), and incubated at 37° C. for 48 h. The primary cultures were subcultured onto TSA-TW80 again, to prepare the secondary cultures. Single colonies of the secondary cultures were selected and used to inoculate 30 ml brain heart infusion broth with Tween 80 (BHI-TW80). The inoculated broth was incubated at 37° C. at 180 rpm for 24 h. Aliquots (1 ml) of the 24 h culture were inoculated into 30 ml of fresh BHI-TW80 broth media, and incubated at 37° C. at 180 rpm for 48 h. Aliquots (2-3 ml) of the 48 h culture were inoculated into four 50 ml of fresh BHI-TW80 broth media, and incubated at 37° C. 180 rpm for 4-6 hrs. When the OD 600 nm reached the target value of 1.6, cells were harvested by centrifugation at 5000 rpm for 10 min, and then resuspended in the same fresh BHI-TW80 at a concentration of 10^9 to 10^10 cfu/mL. This suspension was used as the bacterial suspension for the BCT test.
(§1) BCT Test: Test compositions at a range of concentrations (either combinations of more than one perfume ingredient, and comparative compositions comprising the single perfume ingredients) were prepared in ethanol. Five replicates of each test composition were added into 96-well microtiter plates (120 μl per well), with row B containing control compositions containing the ethanol solution alone. 120 μl of bacterial cell suspensions at a concentration of approximately 1×10^8 bacteria per mL (as prepared above) were added to each well of the microtiter plate. The bacterial suspensions were incubated with the test solutions for 45, 60, or 120 seconds. Following the incubation of the bacterial suspensions with the test solutions, serial dilutions of the bacterial suspensions were generated (three serial 1:10 dilutions, followed by 17 serial 1:2 dilutions), in multiwell microtiter plates.
(§2) Each plate was sealed and incubated at 37° C. under agitation (180 rpm). After incubation, the turbidity of the wells (OD600 nm) was determined using a Tecan microplate reader. Turbid wells were regarded as positive growth, due to the presence of viable cells. The total number of viable cells (log CFU) for each sample was calculated. And the log reduction for each test composition at the final concentration (dose) was calculated against the control sample of the ethanol solution.
(§3) Determination of Synergy via the Combination Index (CI): The CI was calculated using Compusyn software (ComboSyn, Inc., as created by Dr. Dorothy Chou in 2005), according to the manufacturer's instructions. The concentration of each test composition (combinations of more than one perfume ingredient, and comparative compositions comprising the single perfume ingredients used to generate the combination) and their corresponding effect fraction was entered, and the corresponding CI calculated.
(§4) When the calculated CI values were less than 0.9, the combination of perfume ingredients was regarded as having synergistic effect. When the calculated CI was between 1.0 a 0.9, the combination of perfume ingredients was regarded as having an additive effect. When the calculated CI was greater than 1.0, the combination of perfume ingredients was regarded as having an antagonistic effect.

The test system of another assay is S. aureus ATCC 6538. The assay can be described thus: BCT test (bacterial contact time), 60 s, log reduction / effect fraction; CI by Compusyn. Type of assay: cell-based, Staphylococcus aureus. Particulars: Staphylococcus aureus, ATCC6538, 1 min, 60 s, in 25% EtOH. The method, then: (§5) E. coli, S. aureus, P. aeruginosa, and S. enterica: Separate suspensions of the E. coli ATCC 10536 strain, S. aureus ATCC 6538 strain, Pseudomonas aeruginosa ATCC 15442 strain, and the Salmonella enterica ATCC 10708 strain were prepared as follows: Stock cultures (stored at −80° C.) were thawed and sub-cultured onto Tryptic Soy Agar (TSA) agar plate media, and incubated at 37° C. for 24 h to obtain single colonies. Single colonies of the primary cultures were streaked onto TSA plates and incubated at 37° for 24 h to generate secondary cultures. Single colonies of secondary cultures picked and used to inoculate into 50 mL of TSB broth. The inoculated TSB broth was incubated at 37° C. at 180 rpm for 18 h. Aliquots (0.5 ml) of the 18 h culture were inoculated into 50 ml of fresh TSB broth, and incubated at 37° C. at 180 rpm for 2-3 hours. When the OD600 nm value of the broth reached 1-2, cells were harvested by centrifugation at 5000 rpm for 10 min, and then resuspended in fresh TSB broth at a concentration of 1-5×10^8 CFU/mL. These suspensions were used as the bacterial suspensions for the BCT test.
as §1, §2, §3, §4

Assay [1] has as its system Pseudomonas aeruginosa ATCC 15442. Described as above. It is filed as cell-based. Particulars: Pseudomonas aeruginosa, ATCC15442, 1 min, BCT 60 s, in 25% EtOH; for log reduction at 0.25 % strength: Dose 0.25 % w/v; for log reduction at 0.4 % strength: Dose 0.4 % w/v; for log reduction at 0.5 % strength: Dose 0.5 % w/v. The method, then: as §5, §1, §2, §3, §4
Assay [2] has as its system Salmonella enterica ATCC 10708. The description is as above. Type of assay: cell-based. Particulars: Salmonella enterica, ATCC10708, 1 min, BCT 60 s, in 25% EtOH; for log reduction at 0.25 % strength: Dose 0.25 % w/v; for log reduction at 0.3 % strength: Dose 0.3 % w/v. The method, then: as §5, §1, §2, §3, §4

Structures are written as SMILES.

Take `Cc1ccc2c(c1)OCC(=O)CO2` [Calone, 7-methyl-2H-1,5-benzodioxepin-3(4H)-one]: the values for the log reduction at 0.5 % strength (with C. xerosis ATCC 373; in assay [1]) were 0.2 and 6.9, respectively. In addition, the log reduction at 0.75 % strength with C. xerosis ATCC 373 amounted to 0.6. The log reduction at 1 % strength with C. xerosis ATCC 373 was 3.2; in the assay with S. aureus ATCC 6538 (dose 1.000 % w/v, read-out: Log reduction), 6.9. Further, the log reduction at 1.25 % strength in the assay with C. xerosis ATCC 373 (dose 1.25% w/v) is 6. Besides, the log reduction at 1.5 % strength in the assay on C. xerosis ATCC 373 (dose 1.5% w/v) came to 6.8. Further, the log reduction at 0.6 % strength in the assay on S. aureus ATCC 6538 (dose 0.600 % w/v, read-out: Log reduction) is 1.6. In addition, the log reduction at 0.7 % strength in the assay on S. aureus ATCC 6538 (dose 0.700 % w/v, read-out: Log reduction) is 2.5. The log reduction at 0.8 % strength in the assay with S. aureus ATCC 6538 (dose 0.800 % w/v) stood at 6.9. The log reduction at 0.9 % strength with S. aureus ATCC 6538 (dose 0.900 % w/v) worked out at 6.9. The log reduction at 0.25 % strength in assay [1] (read-out: Log reduction) worked out at 0.3; in assay [2] it was 0.7. For the same compound, the log reduction at 0.3 % strength in assay [1] (Dose 0.3 % w/v, read-out: Log reduction) was found to be 1; in assay [2], 2.7. Moreover, the log reduction at 0.35 % strength in assay [1] (Dose 0.35 % w/v) turned out to be 2.7; in assay [2] (Dose 0.350 % w/v), 4.2. The log reduction at 0.4 % strength in assay [1] (read-out: Log reduction) was determined as 4.3; in assay [2] (Dose 0.4 % w/v), 7.2. The log reduction at 0.45 % strength in assay [2] (Dose 0.450 % w/v) was determined as 7.8.

Regarding `CC(=O)OCc1ccccc1` [Benzyl acetate, benzyl acetate], the log reduction at 0.25 % strength in the assay with C. xerosis ATCC 373 (dose 0.25% w/v, read-out: Log reduction) is 0; with S. aureus ATCC 6538 (dose 0.250 % w/v, read-out: Log reduction) it was 0.8; in assay [1] (read-out: Log reduction), 3.9; in assay [2], 6.5. In addition, the log reduction at 0.4 % strength worked out at 1.1 with C. xerosis ATCC 373 (dose 0.4% w/v, read-out: Log reduction); 6.7 with S. aureus ATCC 6538 (dose 0.400 % w/v, read-out: Log reduction); 7.4 in assay [1] (read-out: Log reduction). In addition, the log reduction at 0.5 % strength with C. xerosis ATCC 373 was 2.8; in assay [1], 7.4. Besides, in the assay on C. xerosis ATCC 373, the log reduction at 0.75 % strength amounted to 4.6. Besides, the log reduction at 1 % strength with C. xerosis ATCC 373 was found to be 5.2. Besides, the log reduction at 0.3 % strength was 1.9 in the assay on S. aureus ATCC 6538 (dose 0.300 % w/v, read-out: Log reduction) and 7.7 in assay [2]. For the same compound, the log reduction at 0.35 % strength with S. aureus ATCC 6538 (dose 0.350 % w/v, read-out: Log reduction) was 5.1. Moreover, the log reduction at 0.45 % strength in the assay on S. aureus ATCC 6538 (dose 0.45 % w/v) stood at 7.1; in assay [1] (Dose 0.45 % w/v, read-out: Log reduction), 7.4. Further, the log reduction at 0.2 % strength was found to be 1.2 in assay [1] (Dose 0.2 % w/v, read-out: Log reduction) and 1.9 in assay [2] (Dose 0.2 % w/v). For the same compound, the log reduction at 0.15 % strength in assay [2] (Dose 0.15 % w/v) is 0. The log reduction at 0.225 % strength in assay [2] (Dose 0.225 % w/v) stood at 5.
